Data published in publication PMC11726677, “Eradication of Therapy-Resistant Cancer Stem Cells by Novel Telmisartan Derivatives” (Journal of Medicinal Chemistry, 2024).
Several values for one entry are separate records, joined by “and”; a condition that tells them apart may be missing. Identical values can stand only once. Marks after values point to notes of the source that are not given here.

Tests used:
[1] = Caco2 permeability (bidirectional); type: in vitro ADME; details: human, Caco-2; Papp B–A/Papp A–B
Method: The medium was changed regularly and on day 20 the permeability study was performed. The monolayers were prepared by rinsing the apical and basolateral surfaces with Hanks Balanced Salt Solution (HBSS) twice at the desired pH and by incubating for 40 min to stabilize the physiological parameters. […] The compounds were diluted with buffer to a concentration of 10 μM (final DMSO concentration ≤1%) and added to the apical or basolateral sides of the cell monolayer. Compound permeability was assessed in duplicates and molecules of known permeability characteristics were used as controls (antipyrine, atenolol, talinolol, and estrone 3-sulfate). To calculate Papp, compound appearance was measured using LC–MS/MS. The efflux ratio was determined for bidirectional assays.

[2] = system: human CML K562-R xenograft; experiment: Efficacy in human CML K562-R xenograft model; type: in vivo, female NOD/SCID mice; design: % T/C (treatment/control) / % TGI (tumor growth inhibition): concentration or dose not given beside the values; details: for Tumor Volume, individual animal / Tumor Volume, group mean: PO QD x 30 days (imatinib 50 mg/kg, 7c 10 mg/kg); for % T/C (treatment/control): mean tumor volume treated vs control; for % TGI (tumor growth inhibition): vs vehicle control
Method: The animals were checked daily for humane end points. Body weight was measured and recorded daily after dosing.
The % T/C value, defined as the ratio of the mean tumor volume for the treated versus control group, was calculated as % T/C = (Tn/Cn) × 100%; whereas Tn: denotes mean tumor volume of the treated group on day n, and Cn: denotes mean tumor volume of the control group on day n. The optimal value is the minimal % T/C ratio, which reflects the maximal tumor growth inhibition achieved.
TGI (Tumor growth inhibition) was calculated by the following formula [drawing 1] [drawing 2]
Whereas: Tn: denotes the mean tumor volume of the treated group on day n; T1: denotes the mean tumor volume of the treated group on day 1; Cn: denotes the mean tumor volume of the vehicle control group on day n; and C1: denotes the mean tumor volume of the vehicle control group at day 1.

## CCCc1nc2c(C)cc(-c3nc4ccccc4n3C)cc2n1Cc1ccc(-c2ccccc2C(=O)OC)cc1 [7b, Methyl 4′-((1,7′-dimethyl-2′-propyl-1H,3′H-[2,5′-bibenzo[d]imidazole]-3′-yl)methyl)-[1,1′-biphenyl]-2-carboxylate]
[1]
  efflux ratio at 10 µM: 1.24

## CCCc1nc2c(C)cc(-c3nc4ccccc4n3C)cc2n1Cc1ccc(-c2ccccc2C(N)=O)cc1 [7c, 4′-((1,7′-Dimethyl-2′-propyl-1H,3′H-[2,5′-bibenzo[d]imidazole]-3′-yl)methyl)-[1,1′-biphenyl]-2-carboxamide]
[2]; Day 1, animals No. 1–7
  Tumor Volume, individual animal: 171 mm3 and 163 mm3 and 155 mm3 and 149 mm3 and 140 mm3 and 136 mm3 and 124 mm3
[2]; Day 1, n = 7
  Tumor Volume, group mean: 148 mm3
[2]; Day 5, animals No. 1–7
  Tumor Volume, individual animal: 197 mm3 and 204 mm3 and 162 mm3 and 148 mm3 and 149 mm3 and 187 mm3 and 130 mm3
[2]; Day 5, n = 7
  Tumor Volume, group mean: 168 mm3
[2]; Day 5
  % T/C (treatment/control): 90%
  % TGI (tumor growth inhibition): 46%
[2]; Day 8, animals No. 1–7
  Tumor Volume, individual animal: 202 mm3 and 360 mm3 and 167 mm3 and 154 mm3 and 155 mm3 and 464 mm3 and 133 mm3
[2]; Day 8, n = 7
  Tumor Volume, group mean: 234 mm3
[2]; Day 8
  % T/C (treatment/control): 96%
  % TGI (tumor growth inhibition): 9%
[2]; Day 12, animals No. 1–7
  Tumor Volume, individual animal: 213 mm3 and 711 mm3 and 201 mm3 and 158 mm3 and 164 mm3 and 949 mm3 and 143 mm3
[2]; Day 12, n = 7
  Tumor Volume, group mean: 363 mm3
[2]; Day 12
  % T/C (treatment/control): 88%
  % TGI (tumor growth inhibition): 18%
[2]; Day 15, animals No. 1–7
  Tumor Volume, individual animal: 216 mm3 and 991 mm3 and 317 mm3 and 165 mm3 and 168 mm3 and 1349 mm3 and 143 mm3
[2]; Day 15, n = 7
  Tumor Volume, group mean: 478 mm3
[2]; Day 15
  % T/C (treatment/control): 75%
  % TGI (tumor growth inhibition): 32%
[2]; Day 19, animals No. 1–7
  Tumor Volume, individual animal: 207 mm3 and 1716 mm3 and 521 mm3 and 192 mm3 and 174 mm3 and 1858 mm3 and 148 mm3
[2]; Day 19, n = 7
  Tumor Volume, group mean: 688 mm3
[2]; Day 19
  % T/C (treatment/control): 84%
  % TGI (tumor growth inhibition): 20%
[2]; Day 22, animals No. 1–7
  Tumor Volume, individual animal: 181 mm3 and 2448 mm3 and 891 mm3 and 198 mm3 and 180 mm3 and 2149 mm3 and 149 mm3
[2]; Day 22, n = 7
  Tumor Volume, group mean: 885 mm3
[2]; Day 22
  % T/C (treatment/control): 79%
  % TGI (tumor growth inhibition): 24%
[2]; Day 26, animals No. 1–7
  Tumor Volume, individual animal: 181 mm3 and 2912 mm3 and 1522 mm3 and 206 mm3 and 188 mm3 and 2607 mm3 and 156 mm3
[2]; Day 26, n = 7
  Tumor Volume, group mean: 1110 mm3
[2]; Day 26
  % T/C (treatment/control): 69%
  % TGI (tumor growth inhibition): 34%
[2]; Day 29, animals No. 1–7
  Tumor Volume, individual animal: 184 mm3 and 3497 mm3 and 1803 mm3 and 214 mm3 and 196 mm3 and 2946 mm3 and 163 mm3
[2]; Day 29, n = 7
  Tumor Volume, group mean: 1286 mm3
[2]; Day 29
  % T/C (treatment/control): 65%
  % TGI (tumor growth inhibition): 38%
[2]; Day 33, animals No. 1–7
  Tumor Volume, individual animal: 200 mm3 and 4707 mm3 and 2923 mm3 and 214 mm3 and 196 mm3 and 3520 mm3 and 172 mm3
[2]; Day 33, n = 7
  Tumor Volume, group mean: 1705* mm3
[2]; Day 33
  % T/C (treatment/control): 63%
  % TGI (tumor growth inhibition): 39%
[2]; harvested on day 33, animals No. 1–7
  Tumor Weight, individual animal: 0.078 g and 3.807 g and 2.646 g and 0.268 g and 0.057 g and 4.319 g and 0.060 g
[2]; harvested on day 33, n = 7
  Tumor Weight, group mean: 1.600 g
